According to patent US20230226002A1, “RETINAL BIOA[…] SYNTHETIC VERY-LONG-CHAIN POLYUNSATURATED FATTY ACIDS” (University of Utah Research Foundation, priority 2020, published 2023):

Assays:
[1] = π-A isotherms of VLC-PUFA in DSPC lipid monolayers (Langmuir trough); format: physicochemical
Description: Pressure-area (π-A) isotherms were collected using a Langmuir trough (KSV, Helsinki, Finland). PBS was used as the subphase for all isotherms. Stock solutions of pure VLC-PUFA, pure DSPC, and DSPC containing 0.1 mol %, 1 mol %, or 10 mol % VLC-PUFA were spread at the air/water interface and allowed to equilibrate for 15 minutes prior to compression to allow for solvent evaporation. The monolayers were compressed at a rate of 2 mm/min at 22±1° C. and repeated in triplicate. The averaged isotherms were smoothed using a 100-point rolling average. The MMA of mixture of VLC-PUFA in DSPC layers was calculated by the formula: MMADSPC+VLC-PUFA=MMADSPCXDSPC+MMAVLC-PUFAXVLC-PUFA, where the X is mol fraction of DSPC and VLC-PUFA in membrane.
After developing an efficient synthetic route to producing VLC-PUFAs, their previously unexplored biophysical properties were studied, including their impact on membrane packing and compressibility as well their influence on membrane dynamics, particularly lipid flip-flop. […] The changes imparted by VLC-PUFAs on lipid packing and the compression moduli of model membranes were evaluated from π-A isotherms of 32:6 n-3 in 1,2-distearoyl-sn-3-glycero-phosphocholine (DSPC) lipid monolayers (FIG. 2A). […]

[2] = DSPC flip-flop kinetics by sum-frequency vibrational spectroscopy; format: physicochemical; settings: 0.1 mol % VLC-PUFA in DSPC vs pure DSPC, about 46° C.
Description: Planar supported lipid bilayers (PSLBs) used in this study were prepared using the Langmuir-Blodgett/Langmuir-Schaefer (LB/LS) method, the details of which are presented elsewhere (Liu and Conboy (2009) Vib. Spectrosc. 50: 106-115). Briefly, the cleaned SiO2 prisms were submerged in PBS. Afterwards, 0.1 mol % VLC-PUFA in DSPCd70 was spread over the air/water interface and allowed to thermally equilibrate for 15 minutes. Afterwards, the monolayer was compressed to 30 mN/m at a rate of 4 mm/min, and the surface pressure was allowed to stabilize for another 5 minutes. The prism was then withdrawn at a rate of 3 mm/min to deposit the LB layer. The subphase was removed, and the trough was cleaned using methanol, isopropanol, and water. […]
Following bilayer assembly, the flow-cell was flushed with PBS in D2O to eliminate any spectral interference from the 0-H bands from water. […] The flip-flop rates of DSPC were determined from the decay of methyl symmetric stretch mode (CH3 vs) for an asymmetrically prepared VLC-PUFA:DSPC membrane in which on leaflet contained dueterated DSPCd70 and DSPC. As DSPC lipid exchange between leaflets, the intensity of the CH3 vs decreases over time due to flip-flop and the rate of exchange is determined by fitting the data to ICH3(t)=Imin+Imaxe^−4kt, the results of which are presented in FIG. 2B. The half-lives of flip-flop were calculated using […]

[3] = Single dose gavage bioavailability, GC-MS of serum and tissues; format: in vivo, WT mice (C57BL/6J); settings: single oral gavage dose of 6 mg, mice
Description: WT mice (C57BL/6J) mice have been used in this study for single dose gavage, repeated dose gavage and optomotry experiments. VLC-PUFA liposomes have been prepared using liposome kit (0.05%) with an addition of alpha-tocopherol (VE) (0.025%) to prevent oxidation. Three month old WT mice were gavage fed with VLC-PUFA liposomes. A dose of 6 mg/mice/day was used, half the dosage used for DHA by previous studies (Jiang, et al. (2009) The Journal of Nutritional Biochemistry 20: 735-741; Hacioglui, et al. (2007) Neurobiology of Learning and Memory 87: 159-165). The mice were gavage fed and sacrificed at time intervals (n=4/time point) of 2, 4, 8, and 24 hr to harvest the blood and other tissues. Eyes were dissected under the microscope to separate retina from RPE. One pair of retina/mouse have been used for lipid extraction as described in the procedure elsewhere. Blood was centrifuged for 5 min at 7500 rpm to separate serum from RBC. Serum, RBC, liver, retina and RPE have been used for lipid extractions and GC-MS analysis.
(§1) Serum, RBCs, orbital adipose tissue, and retina punches, were extracted using the procedure previously adopted (Liu, et al. (2013) J. Chromatogr. A 1307: 191-200). The samples and internal standards (50 μg of tridecanoic acid and 1.15 μg of hentriacontanoic acid) were added in 2 ml stainless steel vials and then homogenized with 0.7 ml silica beads and 1 ml hexane-isopropanol (3:2 v:v) by a Mini Bead Beater-16 (BioSpec Products Inc., Bartlesville, Okla., USA) and a Sonic Dismembrator Model 100 (Fisher Scientific, Pittsburgh, Pa., USA). The homogenized samples were bath sonicated for 5 min in an ice water bath. After centrifugation at 10,000 rpm for 5 min, the extracted solution supernatant was transferred to a clean vial and then dried under a stream of nitrogen. The dried film was dissolved in 200 μl hexane, and 2 ml of 4% HCl in methanol was added. The tubes were flushed with argon and incubated at 80° C. for 4 hr to form FAMEs (Liu, et al. (2013) J. Chromatogr. A 1307: 191-200) and then allowed to cool. The FAME mixture was extracted three times with 1 ml distilled water and 2 ml hexane. The hexane layers were combined and dried under nitrogen gas.
(§2) Silica gel, glass-encased, solid-phase extraction cartridges were subsequently used to clean the FAME extracts. The cartridge was activated with 6 ml of hexane before loading samples. The crude FAME extract was dissolved in 200 μl of hexane and loaded onto the activated cartridge. The cartridge was washed with 6 ml hexane, and the eluate was discarded. FAMEs were eluted from the cartridge with 5 ml hexane:ether (4:1), and the eluate was evaporated under nitrogen gas. The dry film was dissolved in 200 μl of hexane and centrifuged for 3 min at 14,000 rpm to remove particles prior to GC-MS analysis. 1 μl of sample was injected into the GC-MS instrument for LC-PUFAs analysis. For VLC-PUFAs analysis, the sample was dried with nitrogen again and re-dissolved in 20 μl of n-nonane, and 5 μl samples were injected into the GC-MS instrument.
(§3) The Thermo Trace GC-DSQ II system (ThermoFisher Scientific, Waltham, Mass., USA) consists of an automatic sample injector (AS 3000), gas chromatograph (GC), single quadrupole mass detector, and an analytical workstation. The chromatographic separation was carried out with an Rxi-5MS coated 5% diphenyl/95% dimethyl polysiloxane capillary column (30 m×0.25 mm i.d, 0.25 μm film thickness) (Restek, Bellefonte, Pa., USA). Two methods (A and B) were used for detection and quantitation of LC-PUFAs and VLC-PUFAs, respectively as previously published (Liu, et al. (2013) J. Chromatogr. A 1307: 191-200). Bovine retina VLC-PUFAs were extracted and employed as VLC-PUFA standards to establish retention times because commercial standards are not available, and identification of each VLC-PUFA in retinal samples was achieved as described in prior work (Liu, et al. (2010) J. Lipid Res. 51: 3217-3229).

[4] = Repeated dose gavage for 15 days, GC-MS of serum and tissues; format: in vivo, WT mice (C57BL/6J); settings: gavage 15 days
Description: Repeated dose gavage. VLC-PUFA liposomes were gavaged to three month old WT mice for 15 days. The mice were divided into three groups (n=4/group), Group 1 was fed with liposomes prepared with PC and alpha-tocopherol, Group 2 was fed with liposomes prepared with PC, VE, and 1 mg VLC-PUFAs and Group 3 was fed with liposomes with PC, VE and 2 mg VLC-PUFAs. Mice were sacrificed at the end of the experiment and organs were harvested, extracted for lipids and analyzed by GC-MS using the procedure mentioned elsewhere.
as §1, §2, §3

WT mice (C57BL/6J) = experiment: Optomotry/Visual behavior test after repeated dose gavage; format: in vivo; settings: 2 mg/day for 15 days by gavage, compared to controls
Description: Optomotry/Visual behavior test. Repeated dose gavage fed mice were tested for visual behavior to observe the effect of VLC-PUFA on vision. Since the optomotry tests could be manipulative, all the analysts were double blinded. 3 month-old mice were employed to test spatial visual acuity using the OptoMotry system (Cerebral Mechanics, Lethbridg, AB, Canada). Briefly, individual mice were placed on a platform centered in a quad-square formed by four inward facing computer screens, and their movements were monitored by an overhead video camera. Photopic measurements were conducted under illuminance of around 165 lux. […] During the detection of spatial frequency threshold, the rotation speed and contrast were kept at 12°/s, and 100%, respectively, while the frequency was kept at 0.19 cycle/degree in the examination of contrast sensitivity. All experiments had concurrent control mice fed with placebo chow.

[5] = 1 and 2 mg/day groups vs control mice (undetectable)
[6] = both 1 and 2 mg/day groups vs 0 mg/day controls, mice

CC/C=C\C/C=C\C/C=C\C/C=C\C/C=C\C/C=C\CCCCCCCCCCCCC(=O)O [32:6 n-3, (14Z,17Z,20Z,23Z,26Z,29Z)-dotriaconta-14,17,20,23,26,29-hexaenoic acid]
elasticity of DSPC membranes ([1]; 0.1 mol % VLC-PUFA in DSPC membranes): high elasticity
shift of π-A isotherm / mean molecular area (MMA) of the lipids ([1]; 0.1 mol %, 1 mol % and 10 mol % VLC-PUFA in DSPC monolayer, PBS pH 7.4 subphase, 22° C.): shifted the π-A isotherm to higher MMAs
increase of the DSPC flip-flop rate [2]: 4 fold
32:6 n-3 level in RPE ([3]; 4-8 hr after gavage): significant increase
32:6 n-3 level in retina ([3]; 4-8 hr after gavage): significant increase
time until serum VLC-PUFAs became detectable ([3]; serum): ≤ 2 h
serum VLC-PUFA concentration course after the first detection ([3]; serum, over the next 24 hr): reached a lower steady-state concentration
VLC-PUFAs in brain ([3]; throughout the 24 hr-period): undetectable
VLC-PUFAs in liver ([3]; throughout the 24 hr-period): undetectable
VLC-PUFAs in red blood cell (RBC) membranes ([3]; throughout the 24 hr-period): undetectable
RBC VLC-PUFAs [4, 5]: significant increase
serum VLC-PUFAs [4, 5]: significant increase
VLC-PUFAs in brain ([4]; 1 and 2 mg/day, mice): no VLC-PUFAs were detectable
VLC-PUFAs in liver ([4]; 1 and 2 mg/day, mice): detectable levels of VLC-PUFAs only in the 2 mg/day group
increase of VLC-PUFA levels in RPE [4, 6]: 7 fold
increase of VLC-PUFA levels in retina [4, 6]: 2 fold
toxic symptoms or behavioral changes ([4]; treatment groups compared to the control group, mice): toxic symptoms or behavioral changes were observed
contrast sensitivity (rod function) (WT mice (C57BL/6J)): improved significantly
visual acuity (cone function) (WT mice (C57BL/6J)): improved significantly
